From patent US20250375544A1, “DUAL MODE RADIOTRACER AND -THERAPEUTICS” (TECHNISCHE UNIVERSITÄT MÜNCHEN, priority 2021, published 2025)

Experiments:
[1] = test system: LNCaP tumor xenograft-bearing CB17-SCID mouse; test: Metabolite analysis 1 h p.i. (radio-RP-HPLC of organ and body fluid extracts); format: in vivo, mice
Method: […] (9.64 MBq) was injected into the tail vein of a LNCaP tumor xenograft-bearing CB17-SCID mouse. The animal was sacrificed 1 h p.i. and subjected to the standard procedure for biodistribution studies. In addition, urine was taken from all mice that were investigated in this experiment (8.4-9.0 MBq) and pooled (n=5). Relevant dissected organs (tumor, kidneys, liver) and body fluids (blood and urine) were collected, homogenized if necessary and subjected to mechanochemical as well as solid phase extraction (SPE).
Four 2 mL LoBind tubes were equipped with steel and ceramic beads from Lysis Tubes W (analytikjena, Jena, Germany) for kidneys, tumor and liver (bisected). 1 mL radioimmunoprecipitation assay (RIPA) buffer containing 2.0 μmol of 2-PMPA was added to each tube and the organs were homogenized with a MM-400 ball mill (Retsch GmbH, Haan, Germany) at 30 Hz for 20 min. Afterwards, the homogenates were transferred to LoBind tubes free from steel and ceramic beads and centrifuged (15,200 rpm, 10 min, 21° C.). The first supernatants were stored, and the precipitates were again subjected to mechanochemical extraction with 1 mL RIPA buffer (2.0 μmol PMPA) at 30 Hz for 20 min. After centrifugation (15,200 rpm, 10 min, 21° C.), also the second supernatants were kept for SPE.
After cardiac puncture, 1 mL Tracepur®-H2O was directly added to the collected blood sample and centrifuged twice (13,000 rpm, 5 min) to separate the plasma from the blood cells. The precipitate was dissolved in 500 μL Tracepur®-H2O and together with the first supernatant again centrifuged (13,000 rpm, 5 min). Both supernatants were kept for SPE.
Pooled urine samples were centrifuged (13,000 rpm, 5 min) and the supernatant was directly analyzed via radio-RP-HPLC.
For solid phase extraction, the supernatants were loaded onto Strata-X cartridges (200 mg), which were preconditioned with 5 mL MeOH and 5 mL H2O (eight cartridges in total, for all organ and blood supernatants). The cartridges were washed with 1 mL Tracepur®-H2O and dried prior to elution. For each cartridge, 750 μL of MeCN/H2O (6/4, 0.1% TFA) were used for elution and the extracts were analyzed via radio-RP-HPLC.
Besides biodistribution and μSPECT/CT studies, [^177Lu]Lu-11 (tetrazole) was analyzed according to its metabolic stability 1 h p.i. Relevant dissected organs (tumor, kidney, liver) and body fluids (blood and urine) were collected, homogenized if necessary and subjected to extraction of the incorporated activity. […] The respective radio-RP-HPLC analyses of extracts from homogenized organs and body fluids are depicted in FIG. 10.

[2] = test system: LNCaP tumor xenograft-bearing CB17-SCID mice; test: Biodistribution in LNCaP tumor xenograft-bearing CB17-SCID mice
LNCaP cells = format: cell-based, human; conditions: 1 h, 37° C., 1.0 nM ^177Lu-compound, normalized to ([^125I]I-BA)KuE

Q: For CC(C)(C)[Si](F)(c1ccc(C(=O)NCC(NC(=O)CN2CCN(CC(=O)[O-])CCN(CC(=O)[O-])CCN(CC(=O)[O-])CC2)C(=O)NC(CCCCNC(=O)CCC(=O)NCCCC(NC(=O)CCC(NC(=O)NC(CCc2nnn[nH]2)C(=O)O)C(=O)O)C(=O)O)C(=O)O)cc1)C(C)(C)C.[177Lu+3] (stereo not drawn) [[^177Lu]Lu-11, [^177Lu]Lu-Tetrazole Derivative 11], which “metabolite with higher hydrophilicity, amount” value ([1]; blood) is on record?
A: The value was 8.5%.

Q: What about the “metabolite with higher hydrophilicity, amount” value ([1]; kidney) of the same compound?
A: Its value is 11.7%.

Q: And the “metabolite with higher hydrophilicity” value ([1]; liver homogenate)?
A: Its value is “not detectable”.

Q: What about the “more lipophilic metabolite (tR=20.5 min), amount” value ([1]; liver homogenate) of the same compound?
A: The value was 28.0%.

Q: What about the “metabolite with higher hydrophilicity, amount” value ([1]; tumor) of the same compound?
A: The value was 7.1%.

Q: What about the “metabolite with higher hydrophilicity, amount” value ([1]; urine) of the same compound?
A: Its value is 18.7%.

Q: And the “Biodistribution Adrenals” value ([2]; 1 h p.i.)?
A: The value was 0.61 ± 0.42 % ID/g.

Q: What about the “Biodistribution Blood” value ([2]; 1 h p.i.) of the same compound?
A: Its value is 1.09 ± 0.30 % ID/g.

Q: And the “Biodistribution Bone” value ([2]; 1 h p.i.)?
A: The value was 0.47 ± 0.44 % ID/g.

Q: What about the “Biodistribution Heart” value ([2]; 1 h p.i.) of the same compound?
A: Its value is 0.41 ± 0.04 % ID/g.

Q: What about the “Biodistribution Intestine” value ([2]; 1 h p.i.) of the same compound?
A: The value was 0.67 ± 0.21 % ID/g.

Q: What about the “Biodistribution Kidneys” value ([2]; 1 h p.i.) of the same compound?
A: The value was 33.2±3.8 % ID/g.

Q: What about the “Biodistribution Liver” value ([2]; 1 h p.i.) of the same compound?
A: Its value is 0.74 ± 0.17 % ID/g.

Q: What about the “Biodistribution Lung” value ([2]; 1 h p.i.) of the same compound?
A: The value was 1.23 ± 0.27 % ID/g.

Q: What about the “Biodistribution Muscle” value ([2]; 1 h p.i.) of the same compound?
A: Its value is 0.15 ± 0.03 % ID/g.

Q: What about the “Biodistribution Pancreas” value ([2]; 1 h p.i.) of the same compound?
A: The value was 0.33 ± 0.11 % ID/g.

Q: What about the “Biodistribution Parotid gland” value ([2]; 1 h p.i.) of the same compound?
A: Its value is 0.56 ± 0.08 % ID/g.

Q: What about the “Biodistribution Spleen” value ([2]; 1 h p.i.) of the same compound?
A: Its value is 1.04 ± 0.15 % ID/g.

Q: And the “Biodistribution Stomach” value ([2]; 1 h p.i.)?
A: Its value is 1.55 ± 1.67 % ID/g.

Q: What about the “Biodistribution Submandibular gland” value ([2]; 1 h p.i.) of the same compound?
A: The value was 0.40 ± 0.05 % ID/g.

Q: What about the “Biodistribution Tumor” value ([2]; 1 h p.i.) of the same compound?
A: The value was 3.40±0.63 % ID/g.

Q: And the “Ratio Tumor-to-blood” value ([2]; 1 h p.i.)?
A: Its value is 3.46 ± 1.62.

Q: And the “Ratio Tumor-to-kidney” value ([2]; 1 h p.i.)?
A: The value was 0.10 ± 0.03.

Q: What about the “Ratio Tumor-to-liver” value ([2]; 1 h p.i.) of the same compound?
A: Its value is 5.00 ± 2.11.

Q: And the “Ratio Tumor-to-muscle” value ([2]; 1 h p.i.)?
A: Its value is 24.9 ± 10.2.

Q: And the “Ratio Tumor-to-parotid gland” value ([2]; 1 h p.i.)?
A: Its value is 6.20 ± 1.74.

Q: And the “Ratio Tumor-to-submandibular gland” value ([2]; 1 h p.i.)?
A: Its value is 8.74 ± 2.52.

Q: And the “tumor-to-submandibularis and -parotidea ratios at 1 h p.i. compared to respective values at 24 h p.i.” value ([2]; 1 h p.i. vs 24 h p.i.)?
A: The value was “two-fold lower”.

Q: What about the “Biodistribution Adrenals” value ([2]; 24 h p.i.) of the same compound?
A: Its value is 0.17 ± 0.19 % ID/g.

Q: What about the “Biodistribution Blood” value ([2]; 24 h p.i.) of the same compound?
A: Its value is 0.00 ± 0.00 % ID/g.

Q: And the “Biodistribution Bone” value ([2]; 24 h p.i.)?
A: The value was 0.18 ± 0.04 % ID/g.

Q: And the “Biodistribution Heart” value ([2]; 24 h p.i.)?
A: Its value is 0.02 ± 0.00 % ID/g.

Q: And the “Biodistribution Intestine” value ([2]; 24 h p.i.)?
A: The value was 0.52 ± 0.68 % ID/g.

Q: What about the “Biodistribution Kidneys” value ([2]; 24 h p.i.) of the same compound?
A: The value was 3.23 ± 0.77 % ID/g.

Q: What about the “Biodistribution Liver” value ([2]; 24 h p.i.) of the same compound?
A: Its value is 0.18 ± 0.04 % ID/g.

Q: And the “Biodistribution Lung” value ([2]; 24 h p.i.)?
A: The value was 0.05 ± 0.02 % ID/g.

Q: What about the “Biodistribution Muscle” value ([2]; 24 h p.i.) of the same compound?
A: Its value is 0.02 ± 0.01 % ID/g.

Q: And the “Biodistribution Pancreas” value ([2]; 24 h p.i.)?
A: The value was 0.02 ± 0.00 % ID/g.

Q: What about the “Biodistribution Parotid gland” value ([2]; 24 h p.i.) of the same compound?
A: Its value is 0.06 ± 0.02 % ID/g.

Q: And the “Biodistribution Spleen” value ([2]; 24 h p.i.)?
A: The value was 0.11 ± 0.03 % ID/g.

Q: And the “Biodistribution Stomach” value ([2]; 24 h p.i.)?
A: The value was 0.12 ± 0.11 % ID/g.

Q: What about the “Biodistribution Submandibular gland” value ([2]; 24 h p.i.) of the same compound?
A: The value was 0.04 ± 0.01 % ID/g.

Q: What about the “Biodistribution Tumor” value ([2]; 24 h p.i.) of the same compound?
A: The value was 0.68 ± 0.16 % ID/g.

Q: And the “Ratio Tumor-to-blood” value ([2]; 24 h p.i.)?
A: The value was 227 ± 50.

Q: What about the “Ratio Tumor-to-kidney” value ([2]; 24 h p.i.) of the same compound?
A: The value was 0.22 ± 0.06.

Q: And the “Ratio Tumor-to-liver” value ([2]; 24 h p.i.)?
A: The value was 3.74 ± 0.50.

Q: What about the “Ratio Tumor-to-muscle” value ([2]; 24 h p.i.) of the same compound?
A: Its value is 55.9 ± 24.3.

Q: What about the “Ratio Tumor-to-parotid gland” value ([2]; 24 h p.i.) of the same compound?
A: The value was 12.2 ± 1.7.

Q: And the “Ratio Tumor-to-submandibular gland” value ([2]; 24 h p.i.)?
A: Its value is 16.9 ± 2.2.

Q: And the “factor by which tumor-to-submandibular gland and tumor-to-parotid gland ratios declined” value ([2]; 24 h p.i., in comparison to [^177Lu]Lu-PSMA-10)?
A: Its value is 8.

Q: What about the “% Internalization compared to the reference” value (LNCaP cells) of the same compound?
A: The value was 9.9±3.2%.
